Test results taken from US7084166B2, “Bis-heterocyclic compounds with antitumour and chemosensitising activity” (Sigma-Tau Industrie Farmaceutichee Riunite S.p.A., priority 2000, dated 2006).
Where “and” joins values, the source holds several entries; their conditions need not be identical. Equal entries are not always repeated. Where two headings read alike, the source gives them in different places.

Tests used:
Format in all cases: cell-based
[1] = test system: NB4 cells (acute promyelocytic leukaemia); assay: Flow cytofluorimetric analysis of cell cycle; set-up: APOPTOSIS: unit not given here; conditions: ATRA 0.01 μM alone, day 3
Method: The first line used was the NB4 cell line, bearing the t(15;17) chromosomal translocation which generates the fusion protein PML/RARα.
(§1) To assess the effect of the tested compounds on the various phases of the cell cycle, on the third day of treatment 500,000 cells were harvested, centrifuged at 1,000 rpm for 10 minutes, washed twice in PBS w/o (PBS without calcium and magnesium) and fixed in a solution of 50% PBS w/o+50% methanol/acetone (1:4 v/v) for at least 1 hour; the cells were then centrifuged as described, washed in PBS w/o and centrifuged again.
(§2) 200 μl of propidium iodide 100 μg/ml and 200 μl of RNase 150 kU/mg were then added to the cell pellet.
(§3) After a 30-min incubation in the dark at room temperature, the samples were analysed by flow cytofluirometry.

[2] = test system: HL60 cells (acute promyelocytic leukaemia); assay: Flow cytofluorimetric analysis of cell cycle; conditions: ATRA 0.5 μM alone, day 3
Method: The second line used was the HL60 cell line which responds to ATRA (but is less sensitive than the NB4 cell line).
The HL60 and NB4 cells were seeded at a density of 150,000 cells/ml in RPMI 1640 medium containing 10% foetal calf serum, and were treated with the tested compounds in the presence and absence of suboptimal doses of ATRA (5–10 nM for NB4 and 0.5 μM for HL60, respectively) in the dark, and returned to the incubator for 3 days without ever replacing the culture medium.
as §1, §2, §3

[3] = test system: MCF-7-Dx (human mammary carcinoma); assay: Cytotoxicity test on resistant tumour cell lines, tested compound alone; conditions: 24 h incubation, survival after 48 h, ± SD
Method: (§4) This test was used to evaluate the survival of human cell lines resistant to doxorubicin (about 100 times) and cross-resistant to daunorubicin, actinomycin D, mitoxantrone, vincristine, vinblastin, taxol, colchicine, and etoposide.
(§5) The following cell lines were used: MCF-7-Dx (human mammary carcinoma), LoVo-Dx (human colon adenocarcinoma), MES-SA Dx (human uterine sarcoma).
(§6) Before using the association doxorubicin-tested compound, the cytotoxicity of the cells was evaluated with the tested compound (alone) as follows: the cells were incubated with the compound, at scalar concentrations (500 μM÷0.97 μM), for 24 hours; the compound was then removed and cell survival was evaluated after 48 hours with the above-mentioned sulforodamine B test. The antiproliferative activity of the compounds was evaluated in terms of IC50 (concentration of the compound that inhibits 50% of cell survival) processed with the above-mentioned curve-fitting program.

[4] = test system: LoVo-Dx (human colon adenocarcinoma); assay: as above; conditions: 24 h incubation, survival after 48 h, ± SD
Method: as §4, §5, §6

[5] = test system: MCF-7 (human mammary carcinoma); assay: Cytotoxicity test on sensitive tumour cell lines (sulforodamine B test); conditions: 24 h incubation, survival after 48 h, ± S.D., read-out: antiproliferative activity IC50, MCF-7
Method: (§7) This test was used to evaluate the survival of the human cell lines MCF-7 (human mammary carcinoma), LoVo (human colon adenocarcinoma), and MES-SA (human uterine sarcoma). The tumour cells were incubated with the compound, at scalar concentrations, (500 μM÷0.97 μM) for 24 hours; the compound was then removed and cell survival was evaluated after 48 hours using the sulforodamine B test (J. Natl. Cancer Inst. 82, 1107–1112). The antiproliferative activity of the compounds was evaluated in terms of the IC50 (concentration of the molecule that inhibits 50% of cell survival) processed with a curve-fitting program (Am. J. Physiol. 1978., 235, E97–E102) and expressed as μM±S.D.

[6] = test system: LoVo (human colon adenocarcinoma); assay: as above; conditions: 24 h incubation, survival after 48 h, ± S.D., read-out: antiproliferative activity IC50, Lovo
Method: as §7

[7] = test system: MES-SA (human uterine sarcoma); assay: as above; conditions: 24 h incubation, survival after 48 h, ± S.D., read-out: antiproliferative activity IC50, Mes-Sa
Method: as §7

[8] = test system: MES-SA Dx (human uterine sarcoma); assay: Cytotoxicity test on resistant tumour cell lines, tested compound alone; conditions: 24 h incubation, survival after 48 h, ± SD
Method: as §4, §5, §6

Compound | IC50 [3] [µM] | IC50 [4] [µM] | IC50 ([5]; Homo sapiens, MCF7) [µM] | IC50 ([6]; Homo sapiens, LoVo) [µM] | IC50 ([3]; Homo sapiens, MCF7/DX) [µM] | IC50 ([4]; Homo sapiens, LoVo/DX) [µM] | IC50 ([8]; Homo sapiens, MES-SA Dx) [µM] | IC50 [5] [µM] | IC50 [6] [µM] | other results
CC1=C(/C=C/C(C)=C/C=C/C(C)=C/C(=O)O)C(C)(C)CCC1 [ATRA, all-trans retinoic acid, reference compound] |  |  |  |  |  |  |  |  |  | APOPTOSIS [1]: 10 and 17.5 and 12.5; G0/G1 [1]: 54.6 and 65.0 and 55.8; G2/M [1]: 14.4 and 11.0 and 17.3; S [1]: 31.0 and 24.0 and 26.9; G0/G1 [2]: 63.3 and 63.4; G2/M [2]: 11.0; S [2]: 25.7 and 25.6
CC1(C)O[C@@H]([C@H](O)[C@H]2COC(C)(C)O2)[C@@H](C(c2c[nH]c3ncccc23)c2c[nH]c3ncccc23)O1 [ST 1353, 2,3-5,6-di-O-isopropylidene-1,1-di-7-azaindol-3-yl-1-deoxy-D-mannitol] | > 500 | 367 ± 82 |  |  |  |  |  |  |  | 
OCCCC(c1c[nH]c2cc3c(cc12)OCO3)c1c[nH]c2cc3c(cc12)OCO3 [ST 1730, 4-hydroxy-1,1-di-(5,6-methylenedioxy-indol-3-yl)-butane] |  |  | 24.5 ± 3.7 | 9.3 ± 0.9 |  |  |  |  |  | 
CCCC(c1c[nH]c2ccccc12)c1c[nH]c2ccccc12 [ST 1385, 1,1-di-indol-3-yl-butane] |  |  | 27 ± 3.2 | 26.4 ± 0.4 | 34.6 ± 2 | 17.6 ± 0.9 | 33.6 ± 2.9 |  |  | IC50 ([7]; Homo sapiens, MES-SA): 19.5 ± 4 µM
CCCC(c1c[nH]c2cc3c(cc12)OCO3)c1c[nH]c2cc3c(cc12)OCO3 [ST 1478, 1,1-di-(5,6-methylenedioxy-indol-3-yl)-butane] |  |  | 11.8 ± 0.4 | 15.4 ± 1.8 | 15.2 ± 1.9 | 10.7 ± 0.6 | 7.8 ± 1.5 |  |  | IC50 ([7]; Homo sapiens, MES-SA): 17 ± 2 µM
O=C(c1cn(Cc2ccccc2)c2ccccc12)c1cn(Cc2ccccc2)c2ccccc12 [ST 1473, di-(N-benzyl-indol-3-yl)-oxomethane] |  |  |  |  | > 500 | 8.6 ± 2.9 | > 500 |  |  | 
CCCC(c1c[nH]c2ccc(NC(C)=O)cc12)c1c[nH]c2ccc(NC(C)=O)cc12 [ST 1477, 1,1-di-(5-acetamido-indol-3-yl)-butane] |  |  | 33.1 ± 2.9 | 59.4 ± 6.9 |  |  |  |  |  | IC50 ([7]; Homo sapiens, MES-SA): 28.7 ± 0.2 µM
CCCC(c1c[nH]c2ccc([N+](=O)[O-])cc12)c1c[nH]c2ccc([N+](=O)[O-])cc12 [ST 1429, 1,1-di-(5 nitroindol-3-yl)-butane] |  |  | 10.4 ± 0.3 | 23.6 ± 0.5 | 12.9 ± 0.7 | 10.2 ± 0.5 | 15.3 ± 0.4 |  |  | IC50 ([7]; Homo sapiens, MES-SA): 15 ± 2.5 µM
OCCCC(c1cc2cc3c(cc2[nH]1)OCO3)c1c[nH]c2cc3c(cc12)OCO3 (racemic) [ST 1731, (R,S)-4-hydroxy-1,1-di-(5,6-methylenedioxy-indol-2-yl, 5,6-methylenedioxy-indol-3-Yl)-butane] |  |  |  |  |  |  |  | 30.1 ± 4 | 23.9 ± 0.7 | 
CC(=O)OC[C@@H](OC(C)=O)[C@@H](OC(C)=O)[C@H](OC(C)=O)[C@@H](OC(C)=O)C(c1c[nH]c2ccccc12)c1c[nH]c2ccccc12 [ST 1363, 1,1-di-indol-3-yl-1-deoxy-pentaacetyl-D-glucose] | 65.4 ± 0.7 | 121 ± 12 |  |  |  |  |  | 25 ± 2.8 | 31.3 ± 1.6 | IC50 [7]: 33.6 ± 5.9 µM
FCCCC[C@@H](c1cc2ccccc2[nH]1)c1c[nH]c2ccccc12 (racemic) [ST 1421, (R,S)-5-fluoro-1,1-(indol-2-ylindol-3-yl)-pentane] |  |  |  |  |  |  |  | 20.4 ± 2.8 | 20.7 ± 0.7 | 
CCC=C(c1cn(Cc2ccccc2)c2ccccc12)c1cn(Cc2ccccc2)c2ccccc12 [ST 1492, 1,1-di-(N-benzyl-indol-3-yl)-1-butene] |  |  |  |  |  | > 350 | 178 ± 41 |  |  | 
c1ccc2c(C(c3c[nH]c4ccccc34)C3CCCCC3)c[nH]c2c1 [ST 1487, 1,1-di-(indol-3-yl)-cyclohexylmethane] | 15.3 ± 1 | 27.8 ± 2.1 |  |  |  |  |  | 29.9 ± 0.006 | 24.9 ± 0.1 | IC50 [7]: 38.7 ± 0.03 µM; IC50 [8]: 16 ± 3.5 µM
OC(c1ccccc1)(c1nccn1Cc1ccccc1)c1nccn1Cc1ccccc1 [ST 1440, phenyl, hydroxy, di-(N,N-dibenzyl-imidazol-2-yl) methane] | 29.7 ± 2.6 | 4.6 ± 0.6 |  |  |  |  |  | 17 ± 2.9 | 11.7 ± 0.2 | IC50 [7]: 4.7 ± 0.4 µM; IC50 [8]: 14.9 ± 2.5 µM
CCCC(c1c[nH]c2ccc(O)cc12)c1c[nH]c2ccc(O)cc12 [ST 1393, 1,1-di-(5-hydroxyindol-3-yl)-butane] |  |  | 5.9 ± 0.8 | 3 ± 0.5 | 9.2 ± 0.4 | 2.7 ± 0.4 | 7.5 ± 0.3 |  |  | IC50 ([7]; Homo sapiens, MES-SA): 5.7 ± 0.1 µM
OC[C@@H](O)[C@@H](O)[C@H](O)[C@@H](O)C(c1c[nH]c2ccccc12)c1c[nH]c2ccccc12 [ST 1350, 1,1-di-indol-3-yl-1-deoxy-D-glucose] | 70.8 ± 3.7 | > 500 |  |  |  |  |  |  |  | IC50 [8]: 81.4 ± 8 µM
CC1(C)OCC(C(O)C2OC(C)(C)OC2C(c2c[nH]c3ccccc23)c2c[nH]c3ccccc23)O1 [ST 1339, 2,3-5,6-di-O-isopropylidene-1,1-di-indol-3-yl-1-deoxy-D-mannitol] | 98.2 ± 12 | 11 ± 0.6 |  |  |  |  |  |  |  | IC50 [8]: 56.1 ± 11 µM
FCCCCC(c1c[nH]c2ccccc12)c1c[nH]c2ccccc12 [ST 1382, 1,1-(diindol-3-yl)-5-fluoro-pentane] | 40.2 ± 3 | 34.3 ± 6.9 |  |  |  |  |  | 28.5 ± 6 | 33.5 ± 3.7 | IC50 [7]: 40.2 ± 4.1 µM; IC50 [8]: 12.5 ± 0.3 µM
CCCC(c1cc2ccccc2[nH]1)c1c[nH]c2ccccc12 (racemic) [ST 1625, (R,S)-1,1-(indol-2-yl, indol-3-yl) butane] |  |  |  |  |  |  |  | 13.4 ± 1 | 17.1 ± 3.8 | IC50 [7]: 14.1 ± 3.8 µM
CCCC(c1c[nH]c2ccc(F)cc12)c1c[nH]c2ccc(F)cc12 [ST 1438, 1,1-di-(5-fluoroindol-3-yl)-butane] |  |  | 28.1 ± 0.9 | 20 ± 0.8 | 41.8 ± 5.3 | 25.9 ± 3.1 | 35.6 ± 1.7 |  |  | IC50 ([7]; Homo sapiens, MES-SA): 21.8 ± 4.4 µM
CCCC(c1c[nH]c2ccc(N)cc12)c1c[nH]c2ccc(N)cc12 [ST 1437, 1,1-di-(5-amino-indol-3-yl)-butane. 2HCl] |  | 8 ± 0.6 |  |  |  |  |  | 8.3 ± 1.2 | 16.7 ± 3.4 | IC50 [7]: 4.4 ± 0.06 µM; IC50 [8]: 12.2 ± 0.8 µM
CCOC(=O)c1ccc(C(c2ccccc2)c2ccc(C(=O)OCC)[nH]2)[nH]1 [ST 1431, di-(5-ethoxycarbonyl-pyrrol-2-yl)-phenyl-methane] |  |  | 20.3 ± 1.4 | 35.6 ± 0.5 |  |  |  |  |  | 
CS(=O)(=O)OCCCCC(c1c[nH]c2ccccc12)c1c[nH]c2ccccc12 [ST 1488, 1,1-di-(indol-3-yl)-5-mesyloxy-pentane] |  |  | 13.4 ± 2.2 | 11 ± 1.6 | 9.7 ± 1.3 | 18.1 ± 0.6 | 10.3 ± 1.9 |  |  | IC50 ([7]; Homo sapiens, MES-SA): 15.8 ± 1.8 µM
CC(=O)OCCCCC(c1c[nH]c2ccccc12)c1c[nH]c2ccccc12 [ST 1371, 5-acetoxy-1,1-diindol-3-yl-pentane] |  |  | 27.7 ± 4.2 | 33 ± 3 | 74.1 ± 2.5 | 47.9 ± 4.7 | 53 ± 0.4 |  |  | 
CCCc1c(C(=O)c2cn(Cc3ccccc3)c3ccccc23)c2ccccc2n1Cc1ccccc1 [ST 1494, (N-benzyl-indol-3-yl, N-benzyl-2-propyl indol-3-yl)-oxomethane] | > 200 | > 200 |  |  |  |  |  |  |  | IC50 [8]: > 200 µM
